What all share (assay type): functional
Assay [1] can be described thus: Antibacterial activity against Pseudomonas syringae pv. actinidiae assessed as inhibition of bacterial growth incubated for 24 hrs by broth microdilution method.
The test system of a further assay is Enterococcus faecium. As to the kind of experiment: Antibacterial activity against vancomycin-resistant Enterococcus faecium ATCC 700221 assessed as inhibition of bacterial growth incubated for 24 hrs by broth microdilution method. (Dilution methods test growth across graded concentrations, often in twofold steps.)
Assay [2] relates to Staphylococcus aureus. As to the kind of experiment: Antibacterial activity against methicillin resistant Staphylococcus aureus ATCC33591 assessed as inhibition of bacterial growth incubated for 24 hrs by broth microdilution method.
Assay [3] has as its system Staphylococcus aureus. As to the kind of experiment: Antibacterial activity against Staphylococcus aureus ATCC25923 assessed as inhibition of bacterial growth incubated for 24 hrs by broth microdilution method.
The next assay has as its system Ralstonia solanacearum. As to the kind of experiment: Antibacterial activity against Ralstonia solanacearum assessed as inhibition of bacterial growth incubated for 24 hrs by broth microdilution method.
Another assay has as its system Escherichia coli. As to the kind of experiment: Antibacterial activity against Escherichia coli ATCC25922 assessed as inhibition of bacterial growth incubated for 24 hrs by broth microdilution method.
Assay [4] deals with Staphylococcus aureus. As to the kind of experiment: Ratio of MBC to MIC for Staphylococcus aureus ATCC25923.
For assay [5], the system named is Staphylococcus aureus. As to the kind of experiment: Bactericidal activity against methicillin resistant Staphylococcus aureus ATCC33591 assessed as inhibition of bacterial growth incubated for 24 hrs by resazurin dye based analysis. (In general: Alamar Blue is a resazurin reagent that responds to reducing activity.)
In assay [6] the test system is Staphylococcus aureus. As to the kind of experiment: Bactericidal activity against Staphylococcus aureus ATCC25923 assessed as inhibition of bacterial growth incubated for 24 hrs by resazurin dye based analysis.

The results in this text go back to ChEMBL document CHEMBL5576067, “Synthesis and biological evaluation of novel 1,2,3,4-tetrahydro-β-carboline derivatives as potential antibacterial agents” (Bioorg Med Chem Lett, 2024).

The MIC is the lowest concentration that inhibits growth of the organism. One may read the MBC as the smallest concentration meeting the test's criterion for killing.

Values after ≈ are worked out from the molar mass of the structure shown.

In the case of `CN1CCc2c([nH]c3ccccc23)C1c1ccc(NC(=O)c2cccc(F)c2)cc1` (stereo not drawn), the MIC in assay [1] was 16 µg/mL (≈ 40.1 µM); in the assay on Enterococcus faecium it was above 128 µg/mL; in the assay with Staphylococcus aureus [2], 4 µg/mL (≈ 10 µM); with Staphylococcus aureus [3], 32 µg/mL (≈ 80.1 µM); in the assay on Ralstonia solanacearum, 16 µg/mL (≈ 40.1 µM); in the assay with Escherichia coli, 16 µg/mL (≈ 40.1 µM).
Regarding `O=C(Nc1ccc(C2NCCc3c2[nH]c2ccccc32)cc1)c1ccc(Br)cc1` (stereo not drawn), the minimum inhibitory concentration (MIC) in assay [1] was 16 µg/mL (≈ 35.8 µM); with Enterococcus faecium, above 128 µg/mL; in the assay on Staphylococcus aureus [2] it was 32 µg/mL (≈ 71.7 µM); in the assay with Staphylococcus aureus [3], 32 µg/mL (≈ 71.7 µM); in the assay on Ralstonia solanacearum, 32 µg/mL (≈ 71.7 µM); with Escherichia coli, 8 µg/mL (≈ 17.9 µM).
With `O=C(Nc1ccc(C2NCCc3c2[nH]c2ccccc32)cc1)c1ccc(F)c(C(F)(F)F)c1` (stereo not drawn), the MIC in assay [1] is 32 µg/mL (≈ 70.6 µM); with Enterococcus faecium, above 128 µg/mL; in the assay on Staphylococcus aureus [2] it was 8 µg/mL (≈ 17.6 µM); in the assay on Staphylococcus aureus [3] it was 4 µg/mL (≈ 8.82 µM); in the assay with Ralstonia solanacearum, 16 µg/mL (≈ 35.3 µM); in the assay with Escherichia coli, 8 µg/mL (≈ 17.6 µM).
On to `CN1CCc2c([nH]c3ccccc23)C1c1ccc(NC(=O)c2cc(C(F)(F)F)cc(C(F)(F)F)c2)cc1` (stereo not drawn), for which the MIC in [1] is above 128 µg/mL; in the assay with Enterococcus faecium it was above 128 µg/mL; with Staphylococcus aureus [2] it was 32 µg/mL (≈ 61.8 µM); with Staphylococcus aureus [3] it was 16 µg/mL (≈ 30.9 µM); in the assay with Ralstonia solanacearum it was 128 µg/mL (≈ 247 µM); in the assay with Escherichia coli it was 128 µg/mL (≈ 247 µM).
`O=C(Nc1ccc(C2NCCc3c2[nH]c2ccccc32)cc1)c1ccc(Cl)cc1` (stereo not drawn): the Ratio in the assay on Staphylococcus aureus [4] was found to be 1. For the same compound, the MIC in assay [1] was 128 µg/mL (≈ 318 µM); in the assay with Enterococcus faecium, above 128 µg/mL; with Staphylococcus aureus [2], 8 µg/mL (≈ 19.9 µM); with Staphylococcus aureus [3], 4 µg/mL (≈ 9.95 µM); in the assay with Ralstonia solanacearum, 8 µg/mL (≈ 19.9 µM); in the assay with Escherichia coli, 16 µg/mL (≈ 39.8 µM). Moreover, the MBC in the assay with Staphylococcus aureus [5] came to 16 µg/mL (≈ 39.8 µM); with Staphylococcus aureus [6] it was 32 µg/mL (≈ 79.6 µM).
`O=C(Nc1ccc(C2NCCc3c2[nH]c2ccccc32)cc1)c1ccccc1` (stereo not drawn): the MIC was 32 µg/mL (≈ 87.1 µM) in assay [1]; above 128 µg/mL in the assay on Enterococcus faecium; 128 µg/mL (≈ 348 µM) in the assay on Staphylococcus aureus [2]; 128 µg/mL (≈ 348 µM) in the assay on Staphylococcus aureus [3]; 32 µg/mL (≈ 87.1 µM) in the assay on Ralstonia solanacearum; 64 µg/mL (≈ 174 µM) with Escherichia coli.
Regarding `Cc1cccc(C(=O)Nc2ccc(C3c4[nH]c5ccccc5c4CCN3C)cc2)c1` (stereo not drawn), the MIC in assay [1] was 32 µg/mL (≈ 80.9 µM); in the assay on Enterococcus faecium it was above 128 µg/mL; in the assay with Staphylococcus aureus [2] it was 64 µg/mL (≈ 162 µM); with Staphylococcus aureus [3], 32 µg/mL (≈ 80.9 µM); in the assay on Ralstonia solanacearum it was 32 µg/mL (≈ 80.9 µM); in the assay on Escherichia coli, 64 µg/mL (≈ 162 µM).
As to `CN1CCc2c([nH]c3ccccc23)C1c1ccc(NC(=O)c2ccc(Br)cc2)cc1` (stereo not drawn), the MIC in [1] was 64 µg/mL (≈ 139 µM); in the assay with Enterococcus faecium, above 128 µg/mL; in the assay with Staphylococcus aureus [2], 32 µg/mL (≈ 69.5 µM); with Staphylococcus aureus [3], 32 µg/mL (≈ 69.5 µM); in the assay with Ralstonia solanacearum, 32 µg/mL (≈ 69.5 µM); in the assay on Escherichia coli, 32 µg/mL (≈ 69.5 µM).
`Cc1ccccc1C(=O)Nc1ccc(C2c3[nH]c4ccccc4c3CCN2C)cc1` (stereo not drawn): the MIC in [1] is 64 µg/mL (≈ 162 µM); in the assay with Enterococcus faecium, above 128 µg/mL; in the assay on Staphylococcus aureus [2] it was 32 µg/mL (≈ 80.9 µM); in the assay with Staphylococcus aureus [3], 64 µg/mL (≈ 162 µM); with Ralstonia solanacearum, 128 µg/mL (≈ 324 µM); in the assay on Escherichia coli it was 64 µg/mL (≈ 162 µM).
With `CN1CCc2c([nH]c3ccccc23)C1c1ccc(NC(=O)c2cccc(Cl)c2)cc1` (stereo not drawn), the MIC in assay [1] is 64 µg/mL (≈ 154 µM); with Enterococcus faecium, above 128 µg/mL; in the assay with Staphylococcus aureus [2] it was 8 µg/mL (≈ 19.2 µM); in the assay on Staphylococcus aureus [3] it was 16 µg/mL (≈ 38.5 µM); in the assay on Ralstonia solanacearum, 16 µg/mL (≈ 38.5 µM); in the assay on Escherichia coli it was 16 µg/mL (≈ 38.5 µM).
For `CN1CCc2c([nH]c3ccccc23)C1c1ccc(NC(=O)c2ccc(F)c(C(F)(F)F)c2)cc1` (stereo not drawn), the minimum inhibitory concentration (MIC) is 64 µg/mL (≈ 137 µM) in assay [1]; above 128 µg/mL with Enterococcus faecium; 8 µg/mL (≈ 17.1 µM) in the assay with Staphylococcus aureus [2]; 16 µg/mL (≈ 34.2 µM) with Staphylococcus aureus [3]; 16 µg/mL (≈ 34.2 µM) in the assay on Ralstonia solanacearum; 16 µg/mL (≈ 34.2 µM) with Escherichia coli.
As to `CN1CCc2c([nH]c3ccccc23)C1c1ccc(NC(=O)c2ccc(Cl)cc2)cc1` (stereo not drawn), the MIC in [1] is 64 µg/mL (≈ 154 µM); with Enterococcus faecium, above 128 µg/mL; in the assay with Staphylococcus aureus [2] it was 16 µg/mL (≈ 38.5 µM); with Staphylococcus aureus [3] it was 8 µg/mL (≈ 19.2 µM); with Ralstonia solanacearum, 32 µg/mL (≈ 76.9 µM); in the assay on Escherichia coli it was 32 µg/mL (≈ 76.9 µM).
`O=C(Nc1ccc(C2NCCc3c2[nH]c2ccccc32)cc1)c1ccc([N+](=O)[O-])cc1` (stereo not drawn): the MIC was 32 µg/mL (≈ 77.6 µM) in [1]; above 128 µg/mL in the assay with Enterococcus faecium; 4 µg/mL (≈ 9.7 µM) with Staphylococcus aureus [2]; 8 µg/mL (≈ 19.4 µM) with Staphylococcus aureus [3]; 8 µg/mL (≈ 19.4 µM) with Ralstonia solanacearum; 8 µg/mL (≈ 19.4 µM) with Escherichia coli.
`CN1CCc2c([nH]c3ccccc23)C1c1ccc(NC(=O)c2ccc(F)cc2)cc1` (stereo not drawn): the MIC was 128 µg/mL (≈ 320 µM) in assay [1]; above 128 µg/mL with Enterococcus faecium; 8 µg/mL (≈ 20 µM) in the assay on Staphylococcus aureus [2]; 4 µg/mL (≈ 10 µM) in the assay with Staphylococcus aureus [3]; 16 µg/mL (≈ 40.1 µM) in the assay with Ralstonia solanacearum; 16 µg/mL (≈ 40.1 µM) with Escherichia coli.
Turning to `CN1CCc2c([nH]c3ccccc23)C1c1ccc(NC(=O)c2cccc(C(F)(F)F)c2)cc1` (stereo not drawn), the MIC in [1] is 32 µg/mL (≈ 71.2 µM); with Enterococcus faecium, above 128 µg/mL; in the assay with Staphylococcus aureus [2], 32 µg/mL (≈ 71.2 µM); in the assay with Staphylococcus aureus [3], 32 µg/mL (≈ 71.2 µM); in the assay with Ralstonia solanacearum it was 16 µg/mL (≈ 35.6 µM); in the assay with Escherichia coli, 32 µg/mL (≈ 71.2 µM).
